7 compounds from patent publication US9540299B2, “MTOR-independent activator of TFEB for autophagy enhancement and uses thereof” (Hong Kong Baptist University, priority 2015, dated 2017) can be followed below.

The first experiment has as its target T1, TFEB (Mus musculus, UniProt Q9R210).
T1 construct: the expression and distribution of endogenous TFEB in N2a cells treated with curcumin and its analogs are determined; endogenous in cells; host or cells: N2a cells
T1 sequence (Q9R210 1-475): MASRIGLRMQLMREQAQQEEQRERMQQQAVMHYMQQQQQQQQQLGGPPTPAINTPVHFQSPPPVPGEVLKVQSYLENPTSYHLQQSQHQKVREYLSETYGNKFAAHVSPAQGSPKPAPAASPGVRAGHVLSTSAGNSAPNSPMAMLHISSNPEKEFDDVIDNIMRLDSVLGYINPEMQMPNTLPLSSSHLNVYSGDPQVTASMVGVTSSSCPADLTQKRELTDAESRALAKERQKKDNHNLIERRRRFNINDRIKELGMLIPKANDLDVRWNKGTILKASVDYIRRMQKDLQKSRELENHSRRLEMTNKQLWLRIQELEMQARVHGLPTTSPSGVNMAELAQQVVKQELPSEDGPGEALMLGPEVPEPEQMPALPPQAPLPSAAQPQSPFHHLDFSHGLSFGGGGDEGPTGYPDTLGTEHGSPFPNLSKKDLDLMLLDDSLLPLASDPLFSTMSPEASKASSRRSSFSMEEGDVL
The experiment in a line: Expression and distribution of endogenous TFEB in N2a cells (immunostaining, western blot). The experiment is classed as cell-based.
Conditions: not given
The method, then: Cells were treated with curcumin (Cur, 10 μM), A2, B3 and C1 (1 μM) for 12 h. […] Data is quantified by ImageJ software and is presented as mean±SD of three replicates for each treatment conditions. At least 1000 cells are analyzed in each treatment group. *p<0.05 vs. the control (0.1% DMSO). FIG. 4C is a western blot showing the expression of endogenous TFEB. […] Data are presented as the mean±SD from three independent experiments. *p<0.05 vs. the control (0.1% DMSO). FIG. 4E is fluorescence images showing expression of 3×Flag-TFEB in Hela cells having treated with Cur (10 μM), A2, B3 and C1 (1 μM) for 12 h. Torin 1 (1 μM) treatment for 2 h is used as a positive control. Cells were fixed and stained with anti-Flag antibody. […] FIG. 4G is the western blot showing the expression of Flag-tagged TFEB in the cytosolic (Cyt.) and nuclear (Nuc.) fractions. ACTB and H3F3A (H3 histone, family 3A) are used as loading control of cytoplasmic and nuclear fraction, respectively. FIG. 4H is showing the relative intensity of TFEB in the cytosolic and nuclear fractions. Data are presented as the mean±SD from three independent experiments. *p<0.05 vs. the control (0.1% DMSO).
N2a cells are treated with E2, E3 and E4 (1 μM) for 12 hours. Torin 1 (1 μM) treatment for 2 hours is used as a positive control. The cells are fixed and stained with TFEB antibody (green) and DAPI (blue) (FIG. 16A). TFEB translocate into nucleus are quantified. Quantification data (FIG. 16B) are presented as mean±SD of three replicates in a representative experiment. At least 500 cells are analyzed in each treatment group.
N2a cells are treated with E2, E3, and E4 (1 μM) for 12 hours. Torin 1 (1 μM) treatment for 2 hours is used as a positive control. The expression of endogenous TFEB in the cytosolic (Cyt.) and nuclear (Nuc.) fractions are determined by western blotting (FIG. 17A) and quantified (FIG. 17B). TUBB (β-tubulin) and H3F3A (H3 histone, family 3A) are used as loading control of cytoplasmic and nuclear fraction respectively. Quantification data are presented as the mean±SD from three independent experiments. *p<0.05 vs. the control (0.1% DMSO).
Cells are lysed on ice in 1× Lysis Buffer (9803, Life Technologies) with complete protease inhibitor mixture (04693124001, Roche Applied Science). Animal tissues are homogenized in nine volumes of ice-cold PBS supplemented with protease inhibitors. Cytosolic and nuclear fractions are isolated using protocols similar to those described previously. Anti-Flag or TFEB antibody is added to the whole cell lysates and Dynabeads® Protein G (10003D, Life Technologies) is used for immunoprecipitation. Proteins are separated by 10-15% SDS-PAGE, transferred, and blotted with the antibodies described. The blots are then incubated with secondary antibodies or the Clean-Blot IP Detection Reagent (21230, Thermo Scientific) at room temperature for 1 h. The protein signals are detected by ECL kit (32106, Pierce) and quantified using ImageJ software.
Cells are seeded on coverslips placed in 24-well plates. After drug treatment, slices are fixed with 3.7% paraformaldehyde, permeabilized in 0.2% Triton X-100 and blocked with 5% BSA. After blocking, the slices are stained with anti-TFEB (1:200) or anti-Flag (1:500) antibodies overnight at 4° C. Alexa Fluor®488 (green) or Alexa Fluor®594 (red) secondary antibodies (1:500) are added for 1 h at room temperature. After nuclear staining with DAPI, the slices are mounted with FluorSave reagent (345789, Calbiochem). Cells are visualized using an Eclipse 80i fluorescence microscope (Nikon Instruments Inc.)
Cells are lysed on ice in 1× Lysis Buffer (9803, Life Technologies) with complete protease inhibitor mixture (04693124001, Roche Applied Science) and phosphatase inhibitor (B15001, Biotool). Cytosolic and nuclear fractions are isolated using protocols similar to those described previously. Proteins are separated by 10-15% SDS-PAGE, transferred, and blotted with the antibodies described. […]
(In western blotting, separated proteins are transferred to a membrane and probed.)
`O=C(/C=C/c1ccccc1I)/C=C/c1ccccc1I` [E4]: the “activity to promote TFEB nucleus translocation, comparison among E series analogs” value is “best activity”.

Still in this experiment, the particulars now being: N2a cells, 1 μM, 12 hours.
On to `O=C(/C=C/c1ccccc1Cl)/C=C/c1ccccc1Cl` [E2], for which the “nuclear accumulation of endogenous TFEB by immunofluorescence compared to vehicle control” value is given as “striking nuclear accumulation”; the “nuclear translocation of endogenous TFEB, cytosolic and nuclear fractions by Western blots” value was “potently induce”.
The matching figures for `O=C(/C=C/c1ccccc1Br)/C=C/c1ccccc1Br` [E3]: “striking nuclear accumulation” and “potently induce”.
With `O=C(/C=C/c1ccccc1I)/C=C/c1ccccc1I` [E4], the “nuclear accumulation of endogenous TFEB by immunofluorescence compared to vehicle control” value is reported as “striking nuclear accumulation”; the “nuclear translocation of endogenous TFEB, cytosolic and nuclear fractions by Western blots” value is recorded as “potently induce”.

Still in this experiment, the particulars now being: N2a cells, 12 h; curcumin 10 μM, analogs 1 μM.
Regarding `O=C(/C=C/c1cccc(C(F)(F)F)c1)/C=C/c1cccc(C(F)(F)F)c1` [A2, 1,5-bis(3-(trifluoromethyl)phenyl)penta-1,4-dien-3-one], the “nuclear translocation (distribution) of endogenous TFEB” value (“nuclear translocation (distribution)” below) is reported as “no effects” and the “total levels (expression) of endogenous TFEB” value (from here on “total levels (expression)”) is recorded as “no effects”.
As for `O=C(/C=C/c1ccc(O)cc1)/C=C/c1ccc(O)cc1` [B3, 1,5-bis(4-hydroxyphenyl)penta-1,4-dien-3-one], the “nuclear translocation (distribution)” value is given as “no effects” and the “total levels (expression)” value is listed as “no effects”.
For the compound `COc1ccccc1/C=C/C(=O)/C=C/c1ccccc1OC` [C1, 1,5-bis(2-methoxyphenyl)penta-1,4-dien-3-one], the “nuclear translocation (distribution)” value is given as “promotes” and the “total levels (expression)” value is “increases”.
Taken in the same sequence, the figures for `COc1cc(/C=C/C(=O)CC(=O)/C=C/c2ccc(O)c(OC)c2)ccc1O` [curcumin, Curcumin, reference compound] were “no effects” and “no effects”.
